From patent US11771709B2, “ALK protein degradation agent and anti-tumor application thereof” (ShanghaiTech University, priority 2017, dated 2023)

Test system: SR (NPM-ALK) cells
Experiment: Growth inhibition IC50 in ALCL SR cells (CCK8/WST, 72 hours)
Format: cell-based
Conditions: not given

Row | SMILES | IC50 [nM]
1 | CCc1cc2c(cc1N1CCNCC1)C(C)(C)c1[nH]c3cc(C#N)ccc3c1C2=O [Alectinib Analogue A, 9-ethyl-6,6-dimethyl-11-oxo-8-(piperazin-1-yl)-6,11-dihydro-5H-benzo[b]carbazole-3-carbonitrile, reference compound] | 2.4

Same assay, conditions: 72 h, SR cells, WST; Brigatinib-based PROTAD molecules (Table 3)

Row | SMILES | IC50 [nM]
2 | COc1cc(N2CCC(NC(=O)CCOCCOCCOCCOCCOCCNc3cccc4c3C(=O)N(C3CCC(=O)NC3=O)C4=O)CC2)ccc1Nc1ncc(Cl)c(Nc2ccccc2P(C)(C)=O)n1 (stereo not drawn) [SIAIS151117, N-(1-(4-((5-chloro-4-((2-(dimethylphosphoryl)phenyl)amino)pyrimidin-2-yl)amino)-3-methoxyphenyl)piperidin-4-yl)-1-((2-(2,6-dioxopiperidin-3-yl)-1,3-dioxoisoindolin-4-yl)amino)-3,6,9,12,15-pentaoxaoctadecan-18-amide] | 30.9 ± 21.3

Same assay, conditions: SR cells, WST, 72 hours; Brigatinib-based PROTAD molecules (Table 3)

Row | SMILES | IC50 [nM]
3 | COc1cc(N2CCNCC2)ccc1Nc1ncc(Cl)c(Nc2ccccc2P(C)(C)=O)n1 [Brigatinib Analogue A(SIAIS1197135), (2-((5-chloro-2-((2-methoxy-4-(piperazin-1-yl)phenyl)amino)pyrimidin-4-yl)amino)phenyl) dimethylphosphine oxide] | 1.6 ± 1

Same assay, conditions: SR cells, WST; Alectinib based ALK PROTAD compounds (Table 4)

Row | SMILES | IC50 [nM]
4 | CCc1cc2c(cc1N1CCC(N)CC1)C(C)(C)c1[nH]c3cc(C#N)ccc3c1C2=O [Alectinib Analogue B(SIAIS184193), 8-(4-aminopiperidin-1-yl)-9-ethyl-6,6-dimethyl-11-oxo-6,11-dihydro-5H-benzo[b]carbazole-3-carbonitrile] | 14.7
5 | CCc1cc2c(cc1N1CCC(N3CCNCC3)CC1)C(C)(C)c1[nH]c3cc(C#N)ccc3c1C2=O [Alectinib Analogue C(SIAIS184192), 9-ethyl-6,6-dimethyl-11-oxo-8-(4-(piperazin-1-yl)piperidin-1-yl)-6,11-dihydro-5H-benzo[b]carbazole-3-carbonitrile] | 19.1
6 | CCc1cc2c(cc1N1CCN(C(=O)CCNc3cccc4c3C(=O)N(C3CCC(=O)NC3=O)C4=O)CC1)C(C)(C)c1[nH]c3cc(C#N)ccc3c1C2=O (stereo not drawn) [SIAIS164029, 8-(4-(3-((2-(2,6-dioxopiperidin-3-yl)-1,3-dioxoisoindolin-4-yl)amino)propanoyl)piperazin-1-yl)-9-ethyl-6,6-dimethyl-11-oxo-6,11-dihydro-5H-benzo[b]carbazole-3-carbonitrile] | 27.3
7 | CCc1cc2c(cc1N1CCN(C(=O)CCOCCOCCOCCC(=O)N[C@H](C(=O)N3C[C@H](O)C[C@H]3C(=O)NCc3ccc(-c4scnc4C)cc3)C(C)(C)C)CC1)C(C)(C)c1[nH]c3cc(C#N)ccc3c1C2=O [SIAIS164037, (2S,4R)-1-((S)-2-(tert-butyl)-16-(4-(3-cyano-9-ethyl-6,6-dimethyl-11-oxo-6,11-dihydro-5H-benzo[b]carbazol-8-yl)piperazin-1-yl)-4,16-dioxo-7,10,13-trioxa-3-azahexadecanoyl)-4-hydroxy-N-(4-(4-methylthiazol-5-yl)benzyl)pyrrolidine-2-carboxamide] | 153
8 | CCc1cc2c(cc1N1CCN(C(=O)CCCCC(=O)N[C@H](C(=O)N3C[C@H](O)C[C@H]3C(=O)NCc3ccc(-c4scnc4C)cc3)C(C)(C)C)CC1)C(C)(C)c1[nH]c3cc(C#N)ccc3c1C2=O [SIAIS164095, (2S,4R)-1-((S)-2-(6-(4-(3-cyano-9-ethyl-6,6-dimethyl-11-oxo-6,11-dihydro-5H-benzo[b]carbazol-8-yl)piperazin-1-yl)-6-oxohexanamido)-3,3-dimethylbutanoyl)-4-hydroxy-N-(4-(4-methylthiazol-5-yl)benzyl)pyrrolidine-2-carboxamide] | 71.3
9 | CCc1cc2c(cc1N1CCN(C(=O)CCCCCC(=O)N[C@H](C(=O)N3C[C@H](O)C[C@H]3C(=O)NCc3ccc(-c4scnc4C)cc3)C(C)(C)C)CC1)C(C)(C)c1[nH]c3cc(C#N)ccc3c1C2=O [SIAIS164096, (2S,4R)-1-((S)-2-(7-(4-(3-cyano-9-ethyl-6,6-dimethyl-11-oxo-6,11-dihydro-5H-benzo[b]carbazol-8-yl)piperazin-1-yl)-7-oxoheptanamido)-3,3-dimethylbutanoyl)-4-hydroxy-N-(4-(4-methylthiazol-5-yl)benzyl)pyrrolidine-2-carboxamide] | 79.5
10 | CCc1cc2c(cc1N1CCC(N3CCN(C(=O)CNc4cccc5c4C(=O)N(C4CCC(=O)NC4=O)C5=O)CC3)CC1)C(C)(C)c1[nH]c3cc(C#N)ccc3c1C2=O (stereo not drawn) [SIAIS184194, 8-(4-(4-((2-(2,6-dioxopiperidin-3-yl)-1,3-dioxoisoindolin-4-yl)glycyl)piperazin-1-yl)piperidin-1-yl)-9-ethyl-6,6-dimethyl-11-oxo-6,11-dihydro-5H-benzo[b]carbazole-3-carbonitrile] | 24.2
11 | CCc1cc2c(cc1N1CCC(NC(=O)CNc3cccc4c3C(=O)N(C3CCC(=O)NC3=O)C4=O)CC1)C(C)(C)c1[nH]c3cc(C#N)ccc3c1C2=O (stereo not drawn) [SIAIS219001, N-(1-(3-cyano-9-ethyl-6,6-dimethyl-11-oxo-6,11-dihydro-5H-benzo[b]carbazol-8-yl)piperidin-4-yl)-2-((2-(2,6-dioxopiperidin-3-yl)-1,3-dioxoisoindolin-4-yl)amino)acetamide] | 21.3
12 | CCc1cc2c(cc1N1CCC(N3CCN(C(=O)CCCNc4cccc5c4C(=O)N(C4CCC(=O)NC4=O)C5=O)CC3)CC1)C(C)(C)c1[nH]c3cc(C#N)ccc3c1C2=O (stereo not drawn) [SIAIS219003, 8-(4-(4-(4-((2-(2,6-dioxopiperidin-3-yl)-1,3-dioxoisoindolin-4-yl)amino)butanoyl)piperazin-1-yl)piperidin-1-yl)-9-ethyl-6,6-dimethyl-11-oxo-6,11-dihydro-5H-benzo[b]carbazole-3-carbonitrile] | 21.8
13 | CCc1cc2c(cc1N1CCC(N3CCN(C(=O)CCCCCNc4cccc5c4C(=O)N(C4CCC(=O)NC4=O)C5=O)CC3)CC1)C(C)(C)c1[nH]c3cc(C#N)ccc3c1C2=O (stereo not drawn) [SIAIS219004, 8-(4-(4-(6-((2-(2,6-dioxopiperidin-3-yl)-1,3-dioxoisoindolin-4-yl)amino)hexanoyl)piperazin-1-yl)piperidin-1-yl)-9-ethyl-6,6-dimethyl-11-oxo-6,11-dihydro-5H-benzo[b]carbazole-3-carbonitrile] | 36.8
14 | CCc1cc2c(cc1N1CCC(NC(=O)CCCNc3cccc4c3C(=O)N(C3CCC(=O)NC3=O)C4=O)CC1)C(C)(C)c1[nH]c3cc(C#N)ccc3c1C2=O (stereo not drawn) [SIAIS219010, N-(1-(3-cyano-9-ethyl-6,6-dimethyl-11-oxo-6,11-dihydro-5H-benzo[b]carbazol-8-yl)piperidin-4-yl)-4-((2-(2,6-dioxopiperidin-3-yl)-1,3-dioxoisoindolin-4-yl)amino)butanamide] | 31.1
15 | CCc1cc2c(cc1N1CCC(NC(=O)CCCCCNc3cccc4c3C(=O)N(C3CCC(=O)NC3=O)C4=O)CC1)C(C)(C)c1[nH]c3cc(C#N)ccc3c1C2=O (stereo not drawn) [SIAIS219011, N-(1-(3-cyano-9-ethyl-6,6-dimethyl-11-oxo-6,11-dihydro-5H-benzo[b]carbazol-8-yl)piperidin-4-yl)-6-((2-(2,6-dioxopiperidin-3-yl)-1,3-dioxoisoindolin-4-yl)amino)hexanamide] | 49.9
